≈ marks a conversion by molar mass, not a printed value.
Tests used:
Beta-1,3-glucan synthase = Beta-1,3-glucan synthase (Candida albicans, UniProt O13428); experiment: In vitro inhibitory activity against Beta glucan synthase
Aspergillus fumigatus = experiment: Antifungal activity against Aspergillus fumigatus MTU06002; assay type: functional
Pichia kudriavzevii = experiment: Antifungal activity against Candida krusei ATCC 20579; assay type: functional
Candida albicans [1] = experiment: Antifungal activity against Candida albicans KB fluconazole resistant strain.; assay type: functional
Candida albicans [2] = experiment: Antifungal activity against Candida albicans ATCC 48130; assay type: functional
Candida albicans [3] = experiment: In vitro antifungal activity against Candida albicans CY1002; assay type: functional, organism-based
Candida albicans [4] = experiment: In vitro antifungal activity against Candida albicans CY1002 using 80 percent serum; assay type: functional, organism-based
Candida tropicalis = experiment: Antifungal activity against Candida tropicalis ATCC 13803; assay type: functional
Nakaseomyces glabratus = experiment: Antifungal activity against Candida glabrata ATCC 2001; assay type: functional
Mus musculus [5] = experiment: In vivo efficacy against Aspergillus fumigatus CF1083 1E4 conidia/g for pulmonary aspergillosis in mice after iv treatment on day 14; assay type: functional; details: 336 h
Mus musculus [6] = experiment: In vivo efficacy against Candida albicans CY1002 5E6 cells for systemic candidiasis in mice after iv treatment on day 7; assay type: functional; details: CY1002 5E6, iv, 168 h
Mus musculus [7] = species: Mus musculus; experiment: Hepatotoxicity using inclusion-body formation test in hepatocytes of mice; assay type: functional, Hepatocyte
Lomentospora prolificans = experiment: Antifungal activity against Scedosporium prolificans ATCC 20054; assay type: functional
Scedosporium boydii = experiment: Antifungal activity against Scedosporium […] IFM40731N.; assay type: functional

Sequence of Beta-1,3-glucan synthase (O13428 whole entry): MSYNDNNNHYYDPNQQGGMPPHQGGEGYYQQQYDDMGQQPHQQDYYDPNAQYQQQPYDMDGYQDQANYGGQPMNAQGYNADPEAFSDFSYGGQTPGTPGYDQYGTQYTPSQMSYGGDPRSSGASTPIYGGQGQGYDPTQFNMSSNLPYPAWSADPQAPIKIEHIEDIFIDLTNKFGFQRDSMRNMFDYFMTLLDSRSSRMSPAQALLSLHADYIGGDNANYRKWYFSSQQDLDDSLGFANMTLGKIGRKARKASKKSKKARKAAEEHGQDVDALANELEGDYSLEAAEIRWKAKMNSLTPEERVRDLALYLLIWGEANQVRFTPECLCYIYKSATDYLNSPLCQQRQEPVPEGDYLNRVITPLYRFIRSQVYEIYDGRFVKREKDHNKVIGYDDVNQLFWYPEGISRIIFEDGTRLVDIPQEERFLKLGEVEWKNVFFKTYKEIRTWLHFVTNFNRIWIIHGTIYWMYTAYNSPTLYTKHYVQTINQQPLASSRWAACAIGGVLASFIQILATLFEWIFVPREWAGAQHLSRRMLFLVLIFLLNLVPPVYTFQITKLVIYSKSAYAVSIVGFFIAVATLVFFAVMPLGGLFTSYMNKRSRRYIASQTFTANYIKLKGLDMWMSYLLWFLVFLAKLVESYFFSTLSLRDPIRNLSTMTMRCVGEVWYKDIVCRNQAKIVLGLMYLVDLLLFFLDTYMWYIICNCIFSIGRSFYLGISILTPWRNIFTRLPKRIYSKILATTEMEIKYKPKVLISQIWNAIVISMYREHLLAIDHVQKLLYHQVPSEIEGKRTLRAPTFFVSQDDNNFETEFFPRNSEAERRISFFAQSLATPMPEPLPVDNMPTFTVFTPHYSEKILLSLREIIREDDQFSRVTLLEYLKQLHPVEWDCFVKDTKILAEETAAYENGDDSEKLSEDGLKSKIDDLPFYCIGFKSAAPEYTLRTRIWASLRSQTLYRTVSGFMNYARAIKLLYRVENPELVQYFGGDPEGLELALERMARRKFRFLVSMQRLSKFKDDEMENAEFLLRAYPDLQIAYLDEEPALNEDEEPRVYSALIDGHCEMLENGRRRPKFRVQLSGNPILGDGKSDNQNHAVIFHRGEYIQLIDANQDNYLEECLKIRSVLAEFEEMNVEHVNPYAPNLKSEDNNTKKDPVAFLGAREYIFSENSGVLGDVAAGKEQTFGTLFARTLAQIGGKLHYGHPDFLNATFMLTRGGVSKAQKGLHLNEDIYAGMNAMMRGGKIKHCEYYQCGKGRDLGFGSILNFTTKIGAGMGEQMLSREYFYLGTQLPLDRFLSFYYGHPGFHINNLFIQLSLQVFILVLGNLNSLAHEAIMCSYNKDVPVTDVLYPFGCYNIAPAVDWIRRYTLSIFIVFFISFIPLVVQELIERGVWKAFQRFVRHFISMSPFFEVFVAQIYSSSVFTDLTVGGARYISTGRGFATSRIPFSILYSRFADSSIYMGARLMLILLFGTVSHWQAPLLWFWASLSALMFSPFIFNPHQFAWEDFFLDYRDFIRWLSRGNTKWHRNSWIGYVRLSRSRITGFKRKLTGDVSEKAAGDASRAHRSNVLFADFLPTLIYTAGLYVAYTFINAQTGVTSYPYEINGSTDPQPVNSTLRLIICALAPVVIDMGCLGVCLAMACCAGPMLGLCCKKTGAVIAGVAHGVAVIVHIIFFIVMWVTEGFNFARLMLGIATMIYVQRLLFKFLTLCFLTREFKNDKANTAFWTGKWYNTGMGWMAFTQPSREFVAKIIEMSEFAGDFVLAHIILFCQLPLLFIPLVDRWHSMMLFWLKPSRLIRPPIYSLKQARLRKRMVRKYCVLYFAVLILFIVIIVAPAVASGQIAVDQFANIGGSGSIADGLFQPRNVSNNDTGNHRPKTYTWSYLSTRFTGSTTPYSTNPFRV

| SMILES | IC50 (Beta-1,3-glucan synthase) | MIC (Aspergillus fumigatus) | MIC (Pichia kudriavzevii) | MIC (Candida albicans [1]) | MIC (Candida albicans [2]) | IC50 (Candida albicans [3]) | IC50 (Candida albicans [4]) | MIC (Candida tropicalis) | MIC (Nakaseomyces glabratus) | ED50 (Mus musculus [5]) | ED50 (Mus musculus [6]) | Observed at (Mus musculus [7]) | MIC (Lomentospora prolificans) | MIC (Scedosporium boydii) |
| --- | --- | --- | --- | --- | --- | --- | --- | --- | --- | --- | --- | --- | --- | --- |
| CC[C@H](C)C[C@H](C)CCCCCCCCC(=O)N[C@H]1C[C@@H](O)[C@@H](NCCN)NC(=O)[C@@H]2[C@@H](O)CCN2C(=O)[C@H]([C@H](O)CCN)NC(=O)[C@H]([C@H](O)[C@@H](O)c2ccc(O)cc2)NC(=O)[C@@H]2C[C@@H](O)CN2C(=O)[C@H]([C@@H](C)O)NC1=O | 1.3 nM | – | – | – | – | – | – | – | – | – | – | – | – | – |
| CCCCCCCCCCCCC[C@@H]1CC(=O)N[C@@H]([C@@H](C)O)C(=O)N[C@H](C)C(=O)N[C@@H](Cc2ccc(O)cc2)C(=O)N[C@@H](C(C)C)C(=O)N2C[C@H](O)C[C@H]2C(=O)N[C@@H]([C@@H](C)O)C(=O)N[C@@H]([C@@H](C)O)C(=O)N2CC[C@H](O)[C@H]2C(=O)N[C@@H]([C@H](O)CC(N)=O)C(=O)NCC(=O)N[C@@H]([C@@H](C)O)C(=O)N[C@@H](CCCN(CCN)C(=O)[C@H](CCCN)N(CCN)CCN)C(=O)O1 | 0.2 nM | 0.34 µg/mL (≈ 0.191 µM) | 0.28 µg/mL (≈ 0.158 µM) | 0.35 µg/mL (≈ 0.197 µM) | 0.37 µg/mL (≈ 0.208 µM) | 0.31 µg/mL (≈ 0.174 µM) | 0.24 µg/mL (≈ 0.135 µM) | 0.62 µg/mL (≈ 0.349 µM) | 1.3 µg/mL (≈ 0.732 µM) | 5.2 mg/kg | 0.08 mg/kg | 100 µg/mL | 2.2 µg/mL (≈ 1.24 µM) | 0.35 µg/mL (≈ 0.197 µM) |
| CCCCCCCCCCCCC[C@@H]1CC(=O)N[C@@H]([C@@H](C)O)C(=O)N[C@H](C)C(=O)N[C@@H](Cc2ccc(O)cc2)C(=O)N[C@@H](C(C)C)C(=O)N2C[C@H](O)C[C@H]2C(=O)N[C@@H]([C@@H](C)O)C(=O)N[C@@H]([C@@H](C)O)C(=O)N2CC[C@H](O)[C@H]2C(=O)N[C@@H]([C@H](O)CC(N)=O)C(=O)NCC(=O)N[C@@H]([C@@H](C)O)C(=O)N[C@@H](CCCN(CCCN)C(=O)[C@H](N)CCCN)C(=O)O1 | 0.83 nM | – | – | – | – | 0.37 µg/mL (≈ 0.217 µM) | 0.27 µg/mL (≈ 0.158 µM) | – | – | 5.2 mg/kg | 0.05 mg/kg | 30 µg/mL | – | – |
| CCCCCCCCCCCCC[C@@H]1CC(=O)N[C@@H]([C@@H](C)O)C(=O)N[C@H](C)C(=O)N[C@@H](Cc2ccc(O)cc2)C(=O)N[C@@H](C(C)C)C(=O)N2C[C@H](O)C[C@H]2C(=O)N[C@@H]([C@@H](C)O)C(=O)N[C@@H]([C@@H](C)O)C(=O)N2CC[C@H](O)[C@H]2C(=O)N[C@@H]([C@H](O)CC(N)=O)C(=O)NCC(=O)N[C@@H]([C@@H](C)O)C(=O)N[C@@H](CCCN(CCCN)C(=O)[C@@H](N)CCCN)C(=O)O1 | 0.89 nM | – | – | – | – | 0.47 µg/mL (≈ 0.276 µM) | 0.27 µg/mL (≈ 0.158 µM) | – | – | 8.7 mg/kg | 0.07 mg/kg | 30 µg/mL | – | – |
| CCCCCCCCCCCCC[C@@H]1CC(=O)N[C@@H]([C@@H](C)O)C(=O)N[C@H](C)C(=O)N[C@@H](Cc2ccc(O)cc2)C(=O)N[C@@H](C(C)C)C(=O)N2C[C@H](O)C[C@H]2C(=O)N[C@@H]([C@@H](C)O)C(=O)N[C@@H]([C@@H](C)O)C(=O)N2CC[C@H](O)[C@H]2C(=O)N[C@@H]([C@H](O)CC(N)=O)C(=O)NCC(=O)N[C@@H]([C@@H](C)O)C(=O)N[C@@H](CCCNC(=O)[C@@H](CCCN)N(CCN)CCN)C(=O)O1 | 0.63 nM | 0.67 µg/mL (≈ 0.386 µM) | 0.54 µg/mL (≈ 0.311 µM) | 0.68 µg/mL (≈ 0.392 µM) | 0.31 µg/mL (≈ 0.179 µM) | 0.31 µg/mL (≈ 0.179 µM) | 0.31 µg/mL (≈ 0.179 µM) | 0.35 µg/mL (≈ 0.202 µM) | 1.4 µg/mL (≈ 0.807 µM) | 11.6 mg/kg | 0.13 mg/kg | 30 µg/mL | – | – |
| CCCCCCCCCCCCC[C@@H]1CC(=O)N[C@@H]([C@@H](C)O)C(=O)N[C@H](C)C(=O)N[C@@H](Cc2ccc(O)cc2)C(=O)N[C@@H](C(C)C)C(=O)N2C[C@H](O)C[C@H]2C(=O)N[C@@H]([C@@H](C)O)C(=O)N[C@@H]([C@@H](C)O)C(=O)N2CC[C@H](O)[C@H]2C(=O)N[C@@H]([C@H](O)CC(N)=O)C(=O)NCC(=O)N[C@@H]([C@@H](C)O)C(=O)N[C@@H](CCCNC(=O)[C@H](CCCN)N(CCN)CCN)C(=O)O1 | 0.9 nM | – | – | – | – | 0.37 µg/mL (≈ 0.213 µM) | 0.55 µg/mL (≈ 0.317 µM) | – | – | 8.7 mg/kg | 0.33 mg/kg | 100 µg/mL | – | – |
| CCCCCCCCCCCCC[C@@H]1CC(=O)N[C@H]([C@@H](C)O)C(=O)N[C@H](C)C(=O)N[C@@H](Cc2ccc(O)cc2)C(=O)N[C@@H](C(C)C)C(=O)N2C[C@H](O)C[C@H]2C(=O)N[C@H]([C@@H](C)O)C(=O)N[C@@H]([C@@H](C)O)C(=O)N2CC[C@H](O)[C@H]2C(=O)N[C@@H]([C@H](O)CC(N)=O)C(=O)NCC(=O)N[C@H]([C@@H](C)O)C(=O)N[C@@H](CCCN(CCCN)C(=O)[C@@H](CCCN)N(CCN)CCN)C(=O)O1 | 0.25 nM | 0.58 µg/mL (≈ 0.324 µM) | 0.28 µg/mL (≈ 0.156 µM) | 0.31 µg/mL (≈ 0.173 µM) | 0.37 µg/mL (≈ 0.207 µM) | 0.39 µg/mL (≈ 0.218 µM) | 0.26 µg/mL (≈ 0.145 µM) | 0.56 µg/mL (≈ 0.313 µM) | 1.2 µg/mL (≈ 0.67 µM) | 5.8 mg/kg | 0.12 mg/kg | 100 µg/mL | 0.37 µg/mL (≈ 0.207 µM) | 0.37 µg/mL (≈ 0.207 µM) |

Source: ChEMBL document CHEMBL1134059, “Synthesis and antifungal activities of novel 1,3-beta-D-glucan synthase inhibitors. Part 2” (Bioorg Med Chem Lett, 2001)
